Data as given in patent US20050118290A1, “Compositions and method for treatment of steroid/nuclear receptor-mediated diseases” (University of Singapore, priority 2003, published 2005).

Columns and labels:
Format in all cases: cell-based
Progesterone Receptor = biological target: T1, Progesterone Receptor (Homo sapiens, UniProt P06401); assay: PR (ARE)2-Luc luciferase reporter gene assay
T1 construct: expressed in transfected cells; host or cells: HeLa (named for the formononetin and daidzein experiments)
T1 sequence (P06401 1-933): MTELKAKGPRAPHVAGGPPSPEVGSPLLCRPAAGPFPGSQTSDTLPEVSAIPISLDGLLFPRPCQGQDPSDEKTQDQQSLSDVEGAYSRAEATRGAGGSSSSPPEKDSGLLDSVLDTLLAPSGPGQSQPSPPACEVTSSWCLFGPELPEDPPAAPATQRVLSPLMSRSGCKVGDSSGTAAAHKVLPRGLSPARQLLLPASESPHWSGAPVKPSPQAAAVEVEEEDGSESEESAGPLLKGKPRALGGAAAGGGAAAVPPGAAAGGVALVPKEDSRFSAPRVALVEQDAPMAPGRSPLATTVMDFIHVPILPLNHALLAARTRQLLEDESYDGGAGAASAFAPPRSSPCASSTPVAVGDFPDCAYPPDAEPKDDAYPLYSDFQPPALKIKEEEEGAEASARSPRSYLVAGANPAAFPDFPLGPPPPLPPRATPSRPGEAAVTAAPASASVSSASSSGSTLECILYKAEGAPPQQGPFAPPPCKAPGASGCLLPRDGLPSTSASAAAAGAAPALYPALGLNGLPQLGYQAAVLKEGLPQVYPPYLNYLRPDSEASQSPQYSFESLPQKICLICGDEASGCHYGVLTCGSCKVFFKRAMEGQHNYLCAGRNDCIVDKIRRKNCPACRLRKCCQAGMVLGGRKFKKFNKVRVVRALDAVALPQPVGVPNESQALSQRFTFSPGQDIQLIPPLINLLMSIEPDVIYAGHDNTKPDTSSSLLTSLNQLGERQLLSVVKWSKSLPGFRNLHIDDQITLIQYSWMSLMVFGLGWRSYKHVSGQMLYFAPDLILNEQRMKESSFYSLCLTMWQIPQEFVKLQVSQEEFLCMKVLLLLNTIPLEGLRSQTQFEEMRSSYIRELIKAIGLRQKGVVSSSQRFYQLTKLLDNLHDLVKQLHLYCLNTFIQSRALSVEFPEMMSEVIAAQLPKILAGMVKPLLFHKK
Description: The capacity of HQ extract to activate other steroid receptors, namely AR, PR, GR, ERα and ERβ was examined. […] The (ARE)2-Luc plasmid consist of two repeats of Androgen Response Element (ARE) cloned upstream of the Luciferase Reporter gene in a pGL3-Basic vector (Promega).
(§1) AR, PR, GR and ERα and […] were determined by comparing luciferase activity in test cells with control cells exposed to vehicle (i.e., ethanol or methanol) only, analogous to the determination of PPAR activity as described in the previous examples.

[1] = biological target: T2, human estrogen receptor ERα (Homo sapiens, UniProt P03372); assay: ERα MMTV-ERE-LUC reporter gene assay in HeLa cells
T2 construct: expressed in transfected cells; host or cells: HeLa
T2 sequence (P03372 1-595): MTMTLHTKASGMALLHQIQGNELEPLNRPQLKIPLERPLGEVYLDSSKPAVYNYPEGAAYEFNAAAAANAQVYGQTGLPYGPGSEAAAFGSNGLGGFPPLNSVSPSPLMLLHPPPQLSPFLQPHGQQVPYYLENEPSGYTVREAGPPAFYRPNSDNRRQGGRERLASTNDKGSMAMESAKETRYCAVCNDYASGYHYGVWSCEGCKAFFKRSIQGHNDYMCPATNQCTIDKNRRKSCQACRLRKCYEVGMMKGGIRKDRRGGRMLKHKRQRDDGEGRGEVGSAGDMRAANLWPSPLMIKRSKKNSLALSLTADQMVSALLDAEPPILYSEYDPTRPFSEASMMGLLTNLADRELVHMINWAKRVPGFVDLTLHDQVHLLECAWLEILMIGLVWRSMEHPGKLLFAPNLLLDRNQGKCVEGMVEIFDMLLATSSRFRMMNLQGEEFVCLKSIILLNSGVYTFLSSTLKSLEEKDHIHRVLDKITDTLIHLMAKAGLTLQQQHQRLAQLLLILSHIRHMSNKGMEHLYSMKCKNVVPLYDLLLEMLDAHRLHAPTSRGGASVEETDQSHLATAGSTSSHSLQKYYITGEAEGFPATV
Description: (§2) ERα and ERβ activity were assayed using plasmids encoding either ERα or ERβ co-transfected with the ERE-LUC reporter gene. To assay estrogen receptor agonist activity, HeLa cells were transiently co-transfected with two plasmids (Tcherepanova, et al., 2000) using Lipofectamine. The first plasmid comprised DNA encoding human estrogen receptor (either ERα or ERβ), and the second plasmid comprised an estrogen-driven reporter system comprising: a luciferase reporter gene (LUC) whose transcription is under the control of upstream regulatory elements comprising 4 copies of the vitellogenin estrogen response element (ERE) cloned into the Mouse Mammary Tumor Virus (MMTV) promoter (the full name of the reporter system being ‘MMTV-ERE-LUC’).
as §1

[2] = biological target: T3, human estrogen receptor ERβ (Homo sapiens, UniProt Q92731); assay: ERβ MMTV-ERE-LUC reporter gene assay in HeLa cells; conditions: for ERβ activity comparable to % maximal activity of Estradiol / maximal fold increase in ERβ activity: 30×10^−6 g/ml
T3 construct: expressed in transfected cells; host or cells: HeLa
Description: as §2, §1

T3 sequence (Q92731 whole entry): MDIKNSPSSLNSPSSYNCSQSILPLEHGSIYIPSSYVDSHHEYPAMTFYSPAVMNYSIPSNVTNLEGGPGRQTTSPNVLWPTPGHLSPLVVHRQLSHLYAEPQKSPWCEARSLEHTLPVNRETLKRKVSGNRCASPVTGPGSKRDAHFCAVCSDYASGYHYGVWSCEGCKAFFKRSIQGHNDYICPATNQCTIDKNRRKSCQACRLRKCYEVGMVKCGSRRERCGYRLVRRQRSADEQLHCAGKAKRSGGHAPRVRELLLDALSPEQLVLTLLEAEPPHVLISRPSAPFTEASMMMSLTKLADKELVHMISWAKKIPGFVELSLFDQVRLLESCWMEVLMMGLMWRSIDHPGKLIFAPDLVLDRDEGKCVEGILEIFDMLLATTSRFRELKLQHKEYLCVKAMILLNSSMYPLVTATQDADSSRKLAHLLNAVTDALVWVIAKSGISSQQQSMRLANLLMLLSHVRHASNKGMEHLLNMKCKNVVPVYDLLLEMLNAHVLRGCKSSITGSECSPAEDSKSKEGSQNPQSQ

COc1ccc(-c2coc3cc(O)ccc3c2=O)cc1O [calycosin, 3′,7-Dihydroxy-4′-methoxyisoflavone]
Luciferase activity (Fold over vehicle ± SE) PR/Progesterone (10 × 10^−6M) (Progesterone Receptor; calycosin 3 ×10^−6 g/mL): 1077 ± 43.4 Fold
Luciferase activity (Fold over vehicle ± SE) PR/Progesterone (10 × 10^−6M) (Progesterone Receptor; calycosin 10 ×10^−6 g/mL): 943 ± 44.0 Fold
Luciferase activity (Fold over vehicle ± SE) PR/Progesterone (10 × 10^−6M) (Progesterone Receptor; calycosin 30 ×10^−6 g/mL): 837 ± 115 Fold
increase of the activity of maximal doses of PR agonist (Progesterone Receptor; with progesterone 10×10^−6M): 1.8 fold
ERα activity comparable to % maximal activity of Estradiol ([1]; 30×10^−6 g/ml): ~50%
maximal fold increase in ERα activity ([1]; 30×10^−6 g/ml): 20 fold
Luciferase activity (Fold over vehicle ± SE) ERα/Estradiol (1 × 10^−9M) ([1]; calycosin 3 ×10^−6 g/mL): 118 ± 2.18 Fold
Luciferase activity (Fold over vehicle ± SE) ERα/Estradiol (1 × 10^−9M) ([1]; calycosin 10 ×10^−6 g/mL): 127 ± 6.3 Fold
Luciferase activity (Fold over vehicle ± SE) ERα/Estradiol (1 × 10^−9M) ([1]; calycosin 30 ×10^−6 g/mL): 114 ± 4.18 Fold
increase of the activity of maximal doses of estradiol on ERα ([1]; with estradiol 1×10^−9M): 2.9 fold
effect on ERβ activity of estradiol ([2]; 1 to 30×10^−6 g/mL + estradiol 1×10^−9M): additive
ERβ activity comparable to % maximal activity of Estradiol [2]: ~400%
maximal fold increase in ERβ activity [2]: 100 fold
Luciferase activity (Fold over vehicle ± SE) ERβ/Estradiol (1 × 10^−9M) ([2]; calycosin 3 ×10^−6 g/mL): 55.2 ± 1.21 Fold
Luciferase activity (Fold over vehicle ± SE) ERβ/Estradiol (1 × 10^−9M) ([2]; calycosin 10 ×10^−6 g/mL): 65.1 ± 2.71 Fold
Luciferase activity (Fold over vehicle ± SE) ERβ/Estradiol (1 × 10^−9M) ([2]; calycosin 30 ×10^−6 g/mL): 70.7 ± 3.61 Fold

O=c1c(-c2ccc(O)cc2)coc2cc(O)ccc12 [daidzein]
Luciferase activity (Fold over vehicle ± SE) PR/Progesterone (10 × 10^−9M) (Progesterone Receptor; daidzein 5 ×10^−6 g/mL): 569 ± 84.0 Fold
Luciferase activity (Fold over vehicle ± SE) PR/Progesterone (10 × 10^−9M) (Progesterone Receptor; daidzein 10 ×10^−6 g/mL): 607 ± 90.6 Fold
Luciferase activity (Fold over vehicle ± SE) PR/Progesterone (10 × 10^−9M) (Progesterone Receptor; daidzein 20 ×10^−6 g/mL): 326 ± 65.8 Fold
ERα activity comparable to % maximal activity of Estradiol ([1]; 5×10^−6 g/ml): ~100%
maximal fold increase in ERα activity ([1]; 5×10^−6 g/ml): 20 fold
ERβ activity comparable to % maximal activity of Estradiol [2]: ~200%
maximal fold increase in ERβ activity [2]: 29 fold
